Source: patent US8741907B2, “Alkyl-substituted pyrazolopyrimidines” (Boehringer Ingelheim International GmbH, priority 2002, dated 2014)

Assays:
PDE9A [1] = target: T1, PDE9A (Homo sapiens (Human), UniProt O76083); assay: PDE inhibition, recombinant PDE9A; type: biochemical
Experimental: (§1) The test substances are dissolved in 100% DMSO and serially diluted to determine their in vitro effect on PDE 9A. […] 2 μL portions of the diluted substance solutions are introduced into the wells of microtiter plates (Isoplate; Wallac Inc., Atlanta, Ga.). Then 50 μL of a dilution of the PDE9A preparation described above are added. […] The substrate, [8-^3H] guanosine 3′,5′-cyclic phosphate (1 μCi/μL; Amersham Pharmacia Biotech., Piscataway, N.J.) is diluted 1:2000 with assay buffer (50 mM Tris/HCl pH 7.5, 8.3 mM MgCl2, 1.7 mM EDTA) to a concentration of 0.0005 μCi/μL. The enzyme reaction is finally started by adding 50 μL (0.025 μCi) of the diluted substrate. […] Immediately thereafter, 25 μL of a suspension containing 18 mg/mL Yttrium Scintillation Proximity Beads (Amersham Pharmacia Biotech., Piscataway, N.J.) are added. The microliter plates are sealed with a film and left to stand at room temperature for 60 min. The plates are then measured for 30 s per well in a Microbeta scintillation counter (Wallac Inc., Atlanta, Ga.). IC50 values are determined from the graphical plot of the substance concentration versus the percentage inhibition.

PDE4B = PDE4B (Homo sapiens, UniProt Q07343); assay: PDE inhibition, recombinant PDE4B; type: biochemical
Sequence of PDE4B (Q07343 whole entry, looked up): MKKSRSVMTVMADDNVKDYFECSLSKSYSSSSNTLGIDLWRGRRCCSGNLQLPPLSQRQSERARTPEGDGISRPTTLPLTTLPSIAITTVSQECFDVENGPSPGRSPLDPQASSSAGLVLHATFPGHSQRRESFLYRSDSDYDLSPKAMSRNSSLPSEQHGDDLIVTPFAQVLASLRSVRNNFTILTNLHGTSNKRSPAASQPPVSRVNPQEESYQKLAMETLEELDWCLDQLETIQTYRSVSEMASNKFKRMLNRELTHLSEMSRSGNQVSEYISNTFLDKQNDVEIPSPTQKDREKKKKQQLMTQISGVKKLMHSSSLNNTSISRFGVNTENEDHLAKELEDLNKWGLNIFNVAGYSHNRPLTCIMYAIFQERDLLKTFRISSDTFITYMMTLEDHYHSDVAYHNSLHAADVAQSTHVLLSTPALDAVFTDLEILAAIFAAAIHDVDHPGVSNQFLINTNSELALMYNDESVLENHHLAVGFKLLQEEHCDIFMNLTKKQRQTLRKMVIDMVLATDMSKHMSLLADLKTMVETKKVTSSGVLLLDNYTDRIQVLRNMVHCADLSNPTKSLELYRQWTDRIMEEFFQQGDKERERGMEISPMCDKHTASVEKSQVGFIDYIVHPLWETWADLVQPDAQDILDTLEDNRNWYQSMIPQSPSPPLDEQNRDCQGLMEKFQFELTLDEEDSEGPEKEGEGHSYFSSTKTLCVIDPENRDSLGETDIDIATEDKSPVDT
Experimental: as §1, with “The microliter plates are sealed with a film and left to stand at room temperature for 60 min.” left out
(§2) The in vitro effect of test substances on recombinant PDE3B, PDE4B, PDE7B, PDE8A, PDE10A and PDE11A is determined in accordance with the assay protocol described above for PDE9A with the following adaptations: [5′,8-^3H] adenosine 3′,5′-cyclic phosphate (1 μCi/μL; Amersham Pharmacia Biotech., Piscataway, N.J.) is used as substrate.

PDE1C = PDE1C (Homo sapiens (Human), UniProt Q14123); assay: PDE inhibition, recombinant PDE1C; type: biochemical
PDE10A = PDE10A (Homo sapiens (Human), UniProt Q9Y233); assay: PDE inhibition, recombinant PDE10A; type: biochemical
Source text: (§3) Recombinant PDE1C (GenBank/EMBL Accession Number: NM_005020, Loughney et al. J. Biol. Chem. 1996 271, 796-806), PDE2A (GenBank/EMBL Accession Number: NM_002599, Rosman et al. Gene 1997 191, 89-95), PDE3B (GenBank/EMBL Accession Number: NM_000922, Miki et al. Genomics 1996, 36, 476-485), PDE4B (GenBank/EMBL Accession Number: NM_002600, Obernolte et al. Gene. 1993, 129, 239-247), PDE5A (GenBank/EMBL Accession Number: NM_001083, Loughney et al. Gene 1998, 216, 139-147), PDE7B (GenBank/EMBL Accession Number: NM_018945, Hetman et al. Proc. Natl. Acad. Sci. U.S.A. 2000, 97, 472-476), PDE8A (GenBank/EMBL Accession Number. AF—056490, Fisher et al. Biochem. Biophys. Res. Commun. […]
(§4) The test substances are dissolved in 100% DMSO and serially diluted to determine their in vitro effect on PDE 9A. […] The plates are then measured for 30 s per well in a Microbeta scintillation counter (Wallac Inc., Atlanta, Ga.). IC50 values are determined from the graphical plot of the substance concentration versus the percentage inhibition.
as §2, with “substrate. […]” for “substrate.”

PDE2A = PDE2A (Homo sapiens (Human), UniProt O00408); assay: PDE inhibition, recombinant PDE2A; type: biochemical
Sequence of PDE2A (O00408 whole entry): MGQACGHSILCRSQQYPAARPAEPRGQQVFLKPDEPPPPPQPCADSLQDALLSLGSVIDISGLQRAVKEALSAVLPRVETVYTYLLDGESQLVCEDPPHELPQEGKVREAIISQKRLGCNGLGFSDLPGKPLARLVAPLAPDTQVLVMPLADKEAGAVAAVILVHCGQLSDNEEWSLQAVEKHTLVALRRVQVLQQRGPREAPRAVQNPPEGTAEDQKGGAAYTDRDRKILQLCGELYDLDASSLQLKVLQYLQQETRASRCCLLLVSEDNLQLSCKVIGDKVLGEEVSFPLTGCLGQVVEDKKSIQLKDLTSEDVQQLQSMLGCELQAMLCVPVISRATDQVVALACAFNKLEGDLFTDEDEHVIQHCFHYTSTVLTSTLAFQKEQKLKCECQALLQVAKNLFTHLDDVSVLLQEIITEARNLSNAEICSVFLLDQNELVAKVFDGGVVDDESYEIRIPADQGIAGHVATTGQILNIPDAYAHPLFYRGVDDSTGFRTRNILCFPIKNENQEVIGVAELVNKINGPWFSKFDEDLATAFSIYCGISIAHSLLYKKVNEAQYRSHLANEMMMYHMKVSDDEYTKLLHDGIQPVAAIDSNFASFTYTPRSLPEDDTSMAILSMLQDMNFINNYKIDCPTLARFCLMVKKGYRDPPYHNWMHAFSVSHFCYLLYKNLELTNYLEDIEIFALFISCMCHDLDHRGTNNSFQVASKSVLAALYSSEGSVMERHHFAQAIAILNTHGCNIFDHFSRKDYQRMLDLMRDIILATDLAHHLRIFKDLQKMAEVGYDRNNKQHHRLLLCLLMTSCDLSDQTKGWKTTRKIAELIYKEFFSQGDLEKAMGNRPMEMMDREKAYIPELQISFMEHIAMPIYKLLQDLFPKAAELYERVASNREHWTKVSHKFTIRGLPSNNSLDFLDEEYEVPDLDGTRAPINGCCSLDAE
Source text: as §3, §4
as §2, with “substrate. […]” for “substrate.”

PDE7B = PDE7B (Homo sapiens (Human), UniProt Q9NP56); assay: PDE inhibition, recombinant PDE7B; type: biochemical
Source text: as §3, §4
as §2, with “substrate. […]” for “substrate.”

PDE5A = PDE5A (Homo sapiens (Human), UniProt O76074); assay: PDE inhibition, recombinant PDE5A; type: biochemical
Source text: as §3, §4
as §2, with “substrate. […]” for “substrate.”

PDE8A = PDE8A (Homo sapiens (Human), UniProt O60658); assay: PDE inhibition, recombinant PDE8A; type: biochemical
Sequence of PDE8A (O60658 117-829): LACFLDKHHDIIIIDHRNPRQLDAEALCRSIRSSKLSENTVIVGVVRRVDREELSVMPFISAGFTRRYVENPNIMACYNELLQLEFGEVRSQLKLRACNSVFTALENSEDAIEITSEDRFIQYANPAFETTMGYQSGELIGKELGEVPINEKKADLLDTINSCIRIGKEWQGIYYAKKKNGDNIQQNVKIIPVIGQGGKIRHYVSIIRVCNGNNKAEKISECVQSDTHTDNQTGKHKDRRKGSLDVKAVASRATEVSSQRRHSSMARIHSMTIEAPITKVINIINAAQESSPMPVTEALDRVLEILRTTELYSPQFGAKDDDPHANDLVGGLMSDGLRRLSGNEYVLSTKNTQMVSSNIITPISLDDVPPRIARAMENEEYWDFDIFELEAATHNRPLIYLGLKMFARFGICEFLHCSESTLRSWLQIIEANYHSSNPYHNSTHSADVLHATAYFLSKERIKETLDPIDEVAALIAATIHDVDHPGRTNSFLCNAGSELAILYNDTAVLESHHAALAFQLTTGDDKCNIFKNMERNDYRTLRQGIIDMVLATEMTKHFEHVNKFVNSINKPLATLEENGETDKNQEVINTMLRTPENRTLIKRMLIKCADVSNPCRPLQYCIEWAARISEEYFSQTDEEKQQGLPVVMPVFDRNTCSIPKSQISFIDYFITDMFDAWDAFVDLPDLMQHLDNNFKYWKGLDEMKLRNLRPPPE
Source text: as §3, §4
as §2, with “substrate. […]” for “substrate.”

PDE3B = PDE3B (Homo sapiens (Human), UniProt Q13370); assay: PDE inhibition, recombinant PDE3B; type: biochemical
Sequence of PDE3B (Q13370 whole entry): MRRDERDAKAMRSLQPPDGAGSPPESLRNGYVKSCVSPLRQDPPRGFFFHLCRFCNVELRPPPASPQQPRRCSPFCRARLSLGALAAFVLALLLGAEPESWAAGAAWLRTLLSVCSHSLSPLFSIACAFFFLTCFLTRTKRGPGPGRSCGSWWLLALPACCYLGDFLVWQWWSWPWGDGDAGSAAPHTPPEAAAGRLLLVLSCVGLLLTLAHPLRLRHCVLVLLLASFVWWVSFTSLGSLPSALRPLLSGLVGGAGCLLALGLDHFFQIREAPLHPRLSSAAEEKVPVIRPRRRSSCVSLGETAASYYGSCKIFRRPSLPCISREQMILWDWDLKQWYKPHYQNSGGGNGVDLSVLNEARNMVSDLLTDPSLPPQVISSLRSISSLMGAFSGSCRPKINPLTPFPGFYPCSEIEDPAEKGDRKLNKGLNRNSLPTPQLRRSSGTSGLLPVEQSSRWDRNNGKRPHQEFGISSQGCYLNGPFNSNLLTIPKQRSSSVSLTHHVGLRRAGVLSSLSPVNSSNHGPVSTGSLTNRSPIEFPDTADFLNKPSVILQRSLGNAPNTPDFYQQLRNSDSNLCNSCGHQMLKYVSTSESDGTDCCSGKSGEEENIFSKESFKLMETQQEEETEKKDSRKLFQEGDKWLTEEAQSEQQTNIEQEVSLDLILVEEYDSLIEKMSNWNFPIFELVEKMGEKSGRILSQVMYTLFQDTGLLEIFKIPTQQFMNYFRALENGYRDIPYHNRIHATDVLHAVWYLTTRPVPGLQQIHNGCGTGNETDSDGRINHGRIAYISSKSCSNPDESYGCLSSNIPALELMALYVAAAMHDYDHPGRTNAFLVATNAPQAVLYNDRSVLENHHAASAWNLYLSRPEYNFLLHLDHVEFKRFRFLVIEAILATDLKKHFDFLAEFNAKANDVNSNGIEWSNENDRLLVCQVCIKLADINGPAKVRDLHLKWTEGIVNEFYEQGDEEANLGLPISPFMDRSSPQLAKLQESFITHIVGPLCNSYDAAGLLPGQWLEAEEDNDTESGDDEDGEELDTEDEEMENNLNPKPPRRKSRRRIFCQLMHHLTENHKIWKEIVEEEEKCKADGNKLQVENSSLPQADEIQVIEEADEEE
Source text: as §3, §4
as §2, with “substrate. […]” for “substrate.”

PDE9A [2] = target: T1, PDE9A; conditions: concentrations of up to 100 μM; cited from earlier work
Murine PDE9A = Murine PDE9A (Mus musculus (Mouse), UniProt O70628); conditions: concentrations below 200 μM; cited from earlier work
Sequence of Murine PDE9A (O70628 whole entry): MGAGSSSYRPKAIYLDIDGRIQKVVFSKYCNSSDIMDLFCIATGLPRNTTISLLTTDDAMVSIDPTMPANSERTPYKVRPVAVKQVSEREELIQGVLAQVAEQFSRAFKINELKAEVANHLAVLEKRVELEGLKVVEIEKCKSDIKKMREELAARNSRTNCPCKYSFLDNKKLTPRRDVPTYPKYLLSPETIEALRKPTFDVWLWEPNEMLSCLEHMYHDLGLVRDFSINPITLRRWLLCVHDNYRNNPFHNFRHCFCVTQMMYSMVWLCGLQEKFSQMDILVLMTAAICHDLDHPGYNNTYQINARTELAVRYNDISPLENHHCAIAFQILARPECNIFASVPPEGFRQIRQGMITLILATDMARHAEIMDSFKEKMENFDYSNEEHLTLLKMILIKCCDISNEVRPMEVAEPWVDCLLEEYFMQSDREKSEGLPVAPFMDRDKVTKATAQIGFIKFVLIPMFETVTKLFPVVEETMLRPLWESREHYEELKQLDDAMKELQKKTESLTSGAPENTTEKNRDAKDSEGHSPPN

T1 sequence (O76083 whole entry): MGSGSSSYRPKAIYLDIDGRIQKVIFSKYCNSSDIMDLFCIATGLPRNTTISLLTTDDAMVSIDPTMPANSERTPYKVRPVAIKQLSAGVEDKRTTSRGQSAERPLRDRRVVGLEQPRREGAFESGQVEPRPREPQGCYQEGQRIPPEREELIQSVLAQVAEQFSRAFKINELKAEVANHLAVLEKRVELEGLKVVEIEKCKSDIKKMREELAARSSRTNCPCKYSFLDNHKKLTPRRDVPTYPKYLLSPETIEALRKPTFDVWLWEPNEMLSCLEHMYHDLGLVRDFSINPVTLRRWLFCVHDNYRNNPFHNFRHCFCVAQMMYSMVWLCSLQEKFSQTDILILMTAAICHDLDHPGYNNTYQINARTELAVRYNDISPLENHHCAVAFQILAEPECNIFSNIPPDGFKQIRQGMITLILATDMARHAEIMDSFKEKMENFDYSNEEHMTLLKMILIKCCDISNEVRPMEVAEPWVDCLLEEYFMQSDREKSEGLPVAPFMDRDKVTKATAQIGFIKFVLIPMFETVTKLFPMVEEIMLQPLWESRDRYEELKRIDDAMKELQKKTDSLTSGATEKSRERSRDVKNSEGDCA

SMILES | melting point [°C] | further results
O=c1[nH]c(CC2CCCCC2)nc2c1cnn2C1CCCC1 | 147 | 
CCC(CC)n1ncc2c(=O)[nH]c(CC3C=CCC3)nc21 (stereo not shown) | 128 | 
O=c1[nH]c(CC2CCCO2)nc2c1cnn2C1CCCC1 (stereo not shown) | 179 | 
CCC(C)Cc1nc2c(cnn2C2CCCC2)c(=O)[nH]1 (stereo not shown) | 86 | 
O=c1[nH]c(CC2C=CCC2)nc2c1cnn2C1CCCC1 (stereo not shown) | 166 | 
O=c1[nH]c(CCCO)nc2c1cnn2C1CCCC1 [Example 2, 1-Cyclopentyl-6-(3-hydroxypropyl)-1,5-dihydro-4H-pyrazolo[3,4-d]pyrimidin-4-one] | 138 | 
CCC(CC)n1ncc2c(=O)[nH]c(CC3CCCCC3)nc21 [Example 3, 6-(Cyclohexylmethyl)-1-(1-ethylpropyl)-1,5-dihydro-4H-pyrazolo[3,4-d]pyrimidin-4-one] | 122 | IC50 (PDE9A [1]): 0.11 µM; IC50 (PDE4B): > 4 µM; IC50 (PDE1C): 0.72 µM; IC50 (PDE10A): > 4 µM; IC50 (PDE2A): > 4 µM; IC50 (PDE7B): > 4 µM; IC50 (PDE5A): > 4 µM; IC50 (PDE8A): > 4 µM; IC50 (PDE3B): > 4 µM
CC(C)CCc1nc2c(cnn2C2CCCC2)c(=O)[nH]1 [Example 5, 1-Cyclopentyl-6-(3-methylbutyl)-1,5-dihydro-4H-pyrazolo[3,4-d]pyrimidin-4-one] | 133 | 
CCC(C)Cc1nc2c(cnn2C(CC)CC)c(=O)[nH]1 (stereo not shown) [Example 7, 1-(1-Ethylpropyl)-6-(2-methylbutyl)-1,5-dihydro-4H-pyrazolo[3,4-d]pyrimidin-4-one] | 121 | 
CCC(CC)n1ncc2c(=O)[nH]c(CCC(C)C)nc21 [Example 8, 1-(1-Ethylpropyl)-6-isopentyl-1,5-dihydro-4H-pyrazolo[3,4-d]pyrimidin-4-one] | 127 | 
CCC(CC)n1ncc2c(=O)[nH]c(CC(C)C)nc21 [Example 9, 1-(1-Ethylpropyl)-6-isobutyl-1,5-dihydro-4H-pyrazolo[3,4-d]pyrimidin-4-one] | 161 | 
CCCc1nc2c(cnn2C(CC)CC)c(=O)[nH]1 [Example 10, 1-(1-Ethylpropyl)-6-propyl-1,5-dihydro-4H-pyrazolo[3,4-d]pyrimidin-4-one] | 127 | 
CCC(CC)n1ncc2c(=O)[nH]c(CC3CCCO3)nc21 (stereo not shown) [Example 11, 1-(1-Ethylpropyl)-6-(tetrahydro-2-furanylmethyl)-1,5-dihydro-4H-pyrazolo[3,4-d]-pyrimidin-4-one] | 136 | 
CCOC(=O)CCc1nc2c(cnn2C(CC)CC)c(=O)[nH]1 [Example 14, Ethyl 4-[1-(1-ethylpropyl)-4-oxo-4,5-dihydro-1H-pyrazolo[3,4-d]pyrimidin-6-yl]-propionate] | 118 | 
CC1CCC(Cc2nc3c(cnn3C3CCCC3)c(=O)[nH]2)CC1 (stereo not shown) [Example 15, 1-Cyclopentyl-6-[(4-methylcyclohexyl)methyl]-1,5-dihydro-4H-pyrazolo[3,4-d]-pyrimidin-4-one] | 126 | 
CCOC(=O)CCc1nc2c(cnn2C2CCCC2)c(=O)[nH]1 [Example 18, Ethyl 4-[1-cyclopentyl-4-oxo-4,5-dihydro-1H-pyrazolo[3,4-d]pyrimidin-6-yl]-propionate] | 185 | 
CCC(CC)n1ncc2c(=O)[nH]c(CC3CCCC3)nc21 [Example 21, 6-(Cyclopentylmethyl)-1-(1-ethylpropyl)-1,5-dihydro-4H-pyrazolo[3,4-d]pyrimidin-4-one] | 156 | 
CCC(CC)n1ncc2c(=O)[nH]c(CC(C)C(F)(F)F)nc21 (stereo not shown) [Example 22, 1-(1-Ethylpropyl)-6-(3,3,3-trifluoro-2-methylpropyl)-1,5-dihydro-4H-pyrazolo[3,4-d]pyrimidin-4-one] | 156 | 
CC(Cc1nc2c(cnn2C2CCCC2)c(=O)[nH]1)C(F)(F)F (stereo not shown) [Example 23, 1-(1-Cyclopentyl)-6-(3,3,3-trifluoro-2-methylpropyl)-1,5-dihydro-4H-pyrazolo[3,4-d]pyrimidin-4-one] | 166 | 
CC(C)Cn1c(=O)n(C)c(=O)c2[nH]cnc21 [IBMX] |  | inhibition on the isolated enzyme (PDE9A [2]): no inhibition; inhibition (Murine PDE9A): not inhibited
CC(=O)Nc1ccc(-c2c[nH]c(=O)cn2)cc1 [SKF94120] |  | inhibition on the isolated enzyme (PDE9A [2]): no inhibition
OCCN(CCO)c1nc(N2CCCCC2)c2nc(N(CCO)CCO)nc(N3CCCCC3)c2n1 [dipyridamole] |  | inhibition on the isolated enzyme (PDE9A [2]): no inhibition
COc1ccc(C2CNC(=O)C2)cc1OC1CCCC1 (stereo not shown) [rolipram] |  | inhibition on the isolated enzyme (PDE9A [2]): no inhibition
CCOC(=O)C1=C[C@]2(CC)CCCN3CCc4c(n1c1ccccc41)[C@@H]32 [vinpocetine] |  | inhibition on the isolated enzyme (PDE9A [2]): no inhibition
